Data: PubChem BioAssay AID256 (DTP/NCI, 2004)
Values joined by “and” are separate entries in the source; they are usually repeats but may differ in a detail not shown here. Equal values may be shown once. Toxic doses and inconclusive results are not listed. The calls were made as follows: active = survival T/C of 150% or more; inactive = T/C below 125% in these data.

System: CD2F1 mice, L1210 leukemia ip, survival T/C
Assay: NCI In Vivo Anticancer Drug Screen. Data for tumor model L1210 Leukemia (intraperitoneal) in CD2F1 (CDF1) mice
Settings: higher = longer survival
Method in brief: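 Mice carrying a transplanted tumor received test compound or vehicle alone. The value is the measurement in the treated group divided by that in the vehicle-treated control group.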

[1] = endpoint: mean survival time, dose: 50.0 mg/kg/injection, schedule: Q01DX009 (ip), vehicle: saline with Tween-80
[2] = endpoint: mean survival time, dose: 100.0 mg/kg/injection, schedule: Q01DX009 (ip), vehicle: saline with Tween-80
[3] = endpoint: mean survival time, dose: 200.0 mg/kg/injection, schedule: Q01DX009 (ip), vehicle: saline with Tween-80
[4] = endpoint: mean survival time, dose: 100.0 mg/kg/injection, schedule: Q01DX001 (ip), vehicle: saline
[5] = endpoint: mean survival time, dose: 200.0 mg/kg/injection, schedule: Q01DX001 (ip), vehicle: saline

Measured: T/C

CCSc1ncc(Br)c(Sc2nc(N)nc3nc[nH]c23)n1
active: endpoint: mean survival time, dose: 6.25 mg/kg/injection, schedule: Q01DX Z (ip), vehicle: carboxymethylcellulose (CMC) 154 % of control
inactive: endpoint: mean survival time, dose: 12.5 mg/kg/injection, schedule: Q01DX Z (ip), vehicle: carboxymethylcellulose (CMC) 100 % of control | endpoint: mean survival time, dose: 25.0 mg/kg/injection, schedule: Q01DX Z (ip), vehicle: carboxymethylcellulose (CMC) 98 % of control | endpoint: mean survival time, dose: 50.0 mg/kg/injection, schedule: Q01DX Z (ip), vehicle: carboxymethylcellulose (CMC) 87 % of control

CCC1(c2ccccc2)C(=O)N(Cl)C(=O)N(Cl)C1=O
inactive: endpoint: mean survival time, dose: 25.0 mg/kg/injection, schedule: Q01DX001 (ip), vehicle: saline with Tween-80 101 % of control | endpoint: mean survival time, dose: 50.0 mg/kg/injection, schedule: Q01DX001 (ip), vehicle: saline with Tween-80 95 % of control | endpoint: mean survival time, dose: 100.0 mg/kg/injection, schedule: Q01DX001 (ip), vehicle: saline with Tween-80 95 % of control and 100 % of control

CCCC/C=C/C(=O)OCC
inactive: [1] 91 % of control and 96 % of control | [2] 103 % of control and 101 % of control | [3] 103 % of control and 101 % of control

C[As](C)SCC1OC(n2ncc(=O)[nH]c2=O)C2OC(C)(C)OC12 (stereo not given)
inactive: endpoint: median survival time, dose: 12.5 mg/kg/injection, schedule: Q01DX005 (ip), vehicle: distilled water + Tween-80 97 % of control | endpoint: median survival time, dose: 25.0 mg/kg/injection, schedule: Q01DX005 (ip), vehicle: distilled water + Tween-80 105 % of control | endpoint: median survival time, dose: 50.0 mg/kg/injection, schedule: Q01DX005 (ip), vehicle: distilled water + Tween-80 94 % of control | endpoint: median survival time, dose: 100.0 mg/kg/injection, schedule: Q01DX005 (ip), vehicle: distilled water + Tween-80 101 % of control | endpoint: median survival time, dose: 200.0 mg/kg/injection, schedule: Q01DX005 (ip), vehicle: distilled water + Tween-80 101 % of control

O=C1Nc2ccccc2/C1=N/N=P(c1ccccc1)(c1ccccc1)c1ccccc1
inactive: endpoint: median survival time, dose: 50.0 mg/kg/injection, schedule: Q04DX002 (ip), vehicle: saline with Tween-80 100 % of control | endpoint: median survival time, dose: 100.0 mg/kg/injection, schedule: Q04DX002 (ip), vehicle: saline with Tween-80 110 % of control | endpoint: median survival time, dose: 200.0 mg/kg/injection, schedule: Q04DX002 (ip), vehicle: saline with Tween-80 100 % of control | endpoint: median survival time, dose: 400.0 mg/kg/injection, schedule: Q04DX002 (ip), vehicle: saline with Tween-80 100 % of control

C/C(=C\Cl)CO
inactive: endpoint: mean survival time, dose: 50.0 mg/kg/injection, schedule: Q01DX009 (ip), vehicle: acetone 100 % of control | endpoint: mean survival time, dose: 100.0 mg/kg/injection, schedule: Q01DX009 (ip), vehicle: acetone 106 % of control

CC(NC(=O)c1cnc2ccccc2n1)C(=O)NC(C(=O)O)C(C)C (stereo not given)
inactive: [4] 100 % of control | [5] 100 % of control | endpoint: mean survival time, dose: 400.0 mg/kg/injection, schedule: Q01DX001 (ip), vehicle: saline 102 % of control

CCCC/C=C/C=C/CCCC
inactive: [1] 103 % of control | [2] 92 % of control | [3] 107 % of control

COc1cccc(C(=O)CC(O)(C(F)(F)F)C(F)(F)F)c1
inactive: endpoint: mean survival time, dose: 100.0 mg/kg/injection, schedule: Q01DX009 (ip), vehicle: other 101 % of control | endpoint: mean survival time, dose: 200.0 mg/kg/injection, schedule: Q01DX009 (ip), vehicle: other 97 % of control | endpoint: mean survival time, dose: 400.0 mg/kg/injection, schedule: Q01DX009 (ip), vehicle: other 101 % of control

CC(C)=NNc1nc2c(N)ncnc2n1C1OC(CO)C(O)C1O (stereo not given)
inactive: endpoint: mean survival time, dose: 12.5 mg/kg/injection, schedule: Q01DX005 (ip), vehicle: distilled water + Tween-80 97 % of control | endpoint: mean survival time, dose: 12.5 mg/kg/injection, schedule: Q01DX005 (ip), vehicle: water 96 % of control | endpoint: mean survival time, dose: 25.0 mg/kg/injection, schedule: Q01DX005 (ip), vehicle: distilled water + Tween-80 97 % of control | endpoint: mean survival time, dose: 25.0 mg/kg/injection, schedule: Q01DX005 (ip), vehicle: water 94 % of control | endpoint: mean survival time, dose: 50.0 mg/kg/injection, schedule: Q01DX005 (ip), vehicle: distilled water + Tween-80 97 % of control | endpoint: mean survival time, dose: 50.0 mg/kg/injection, schedule: Q01DX005 (ip), vehicle: water 99 % of control | endpoint: mean survival time, dose: 100.0 mg/kg/injection, schedule: Q01DX005 (ip), vehicle: distilled water + Tween-80 97 % of control | endpoint: mean survival time, dose: 100.0 mg/kg/injection, schedule: Q01DX005 (ip), vehicle: water 99 % of control | endpoint: mean survival time, dose: 200.0 mg/kg/injection, schedule: Q01DX005 (ip), vehicle: distilled water + Tween-80 100 % of control | endpoint: mean survival time, dose: 200.0 mg/kg/injection, schedule: Q01DX005 (ip), vehicle: water 97 % of control

CC(=O)OC1COCOC1C1OCOCC1OC(C)=O (stereo not given)
inactive: endpoint: mean survival time, dose: 50.0 mg/kg/injection, schedule: Q01DX009 (ip), vehicle: Klucel (hydroxypropylcellulose) (HPC) 102 % of control | endpoint: mean survival time, dose: 100.0 mg/kg/injection, schedule: Q01DX009 (ip), vehicle: Klucel (hydroxypropylcellulose) (HPC) 102 % of control | endpoint: mean survival time, dose: 200.0 mg/kg/injection, schedule: Q01DX009 (ip), vehicle: Klucel (hydroxypropylcellulose) (HPC) 110 % of control

O=C(CCCl)c1ccc2c(c1)OCO2
inactive: [4] 104 % of control | [5] 96 % of control
